The source of these data is patent US9734282B2, “Biological dataset profiling of cardiovascular disease and cardiovascular inflammation” (DISCOVERX CORPORATION, priority 2005, dated 2017).

Assay [1] has as its system Primary Human Endothelial Cells (HUVEC). The assay is described as follows: BioMAP 3C system (endothelial cells + IL-1β + TNF-α + IFN-γ), cell-based ELISA. The following applies: for uPAR level: protein level drug-treated versus buffer control, 24 h. The protocol: Human umbilical vein endothelial cells (HUVEC) were cultured according to standard methods, and plated into microtiter plates. Peripheral blood mononuclear cells (PBMC) were prepared from buffy coats from normal human donors according to standard methods. Experiments were performed by culturing HUVEC in microtiter plates in the presence of cytokines (IL-1b, 1 ng/ml; TNF-a, 5 ng/ml; and IFN-g, 100 ng/ml, or IL-4, 5 ng/ml and histamine, […]), activators (SAg, 20 ng/ml or LPS, 0.2 ng/ml), and/or PBMC (7.5×10^4 cells/well) for 24 h. Compounds were tested at the indicated concentrations. Compounds were prepared in the solvent as directed, added 1 hr before stimulation of the cells, and were present during the whole 24 hr stimulation period. The levels of readout parameters (proteins) were measured by cell-based ELISA. Briefly, microtiter plates are treated, blocked, and then incubated with primary antibodies or isotype control antibodies (0.01-0.5 mg/ml) for 1 hr. After washing, plates were incubated with a peroxidase-conjugated anti-mouse IgG secondary antibody or a biotin-conjugated anti-mouse IgG antibody for 1 hr followed by streptavidin-HRP for 30 min. Plates were washed and developed with TMB substrate and the absorbance (OD) was read at 450 nm (subtracting the background absorbance at 650 nm). Other readout parameters include: total protein levels (SRB assay), measuring the viability of peripheral blood mononuclear cells (incorporation of propidium iodide); and microscopic visualization. SRB was performed by staining cells with 0.1% sulforhodamine B after fixation with 10% TCA, and reading wells at 560 nm. PBMC viability was assessed by adding propidium iodide (10 mg/ml) to PBMC that had been cultured for 24 hours in the presence of activators and measuring the percentage of cells that incorporated dye by flow cytometry after 10 minutes. For data analysis, mean OD values (or other measurements) for each parameter were calculated from triplicate samples per experiment. […] 99% prediction envelopes (grey shading in Figures) were calculated for historical controls.
Background: An ELISA detects its analyte on a solid surface through an enzyme-linked reagent.

Assay [2] shares this test system. The assay is described as follows: BioMAP 4H system (endothelial cells + IL-4 + histamine), cell-based ELISA. The following applies: protein level drug-treated versus buffer control, 24 h. The protocol: (§1) Human umbilical vein endothelial cells (HUVEC) were cultured according to standard methods, and plated into microtiter plates. Peripheral blood mononuclear cells (PBMC) were prepared from buffy coats from normal human donors according to standard methods. Experiments were performed by culturing HUVEC in microtiter plates in the presence of cytokines (IL-1b, 1 ng/ml; TNF-a, 5 ng/ml; and IFN-g, 100 ng/ml, or IL-4, 5 ng/ml and histamine, […]), activators (SAg, 20 ng/ml or LPS, 0.2 ng/ml), and/or PBMC (7.5×10^4 cells/well) for 24 h. Compounds were tested at the indicated concentrations. Compounds were prepared in the solvent as directed, added 1 hr before stimulation of the cells, and were present during the whole 24 hr stimulation period.
(§2) The levels of readout parameters (proteins) were measured by cell-based ELISA. Briefly, microtiter plates are treated, blocked, and then incubated with primary antibodies or isotype control antibodies (0.01-0.5 mg/ml) for 1 hr. After washing, plates were incubated with a peroxidase-conjugated anti-mouse IgG secondary antibody or a biotin-conjugated anti-mouse IgG antibody for 1 hr followed by streptavidin-HRP for 30 min. Plates were washed and developed with TMB substrate and the absorbance (OD) was read at 450 nm (subtracting the background absorbance at 650 nm). Other readout parameters include: total protein levels (SRB assay), measuring the viability of peripheral blood mononuclear cells (incorporation of propidium iodide); and microscopic visualization. SRB was performed by staining cells with 0.1% sulforhodamine B after fixation with 10% TCA, and reading wells at 560 nm. PBMC viability was assessed by adding propidium iodide (10 mg/ml) to PBMC that had been cultured for 24 hours in the presence of activators and measuring the percentage of cells that incorporated dye by flow cytometry after 10 minutes.
(§3) For data analysis, mean OD values (or other measurements) for each parameter were calculated from triplicate samples per experiment. The mean value obtained for each parameter in a treated sample was then divided by the mean value from an appropriate control to generate a ratio. All ratios were then log 10 transformed. An average or “trusted” profile was created by averaging 2 repeats of the experiment for each compound and concentration combination. 99% prediction envelopes (grey shading in Figures) were calculated for historical controls.

For assay [3], the system named is HUVEC and HUVEC + PBMC systems. The assay can be described thus: 4 system BioMAP activity profile (3C, 4H, LPS, SAg). Format: cell-based, human. The following applies: data not shown. The procedure: as §1, §2
For data analysis, mean OD values (or other measurements) for each parameter were calculated from triplicate samples per experiment. […] 99% prediction envelopes (grey shading in Figures) were calculated for historical controls.

The subject of assay [4] is Peripheral Blood Mononuclear Cells + Endothelial Cells. The assay is described as follows: BioMAP SAg system (PBMC + endothelial cells, TCR), cell-based ELISA. Also on record: species or system human. The following applies: for CD69 level / E-selectin level / IL-8 level: protein level drug-treated versus buffer control, 24 h. The procedure: as §1, §2, §3
Assay [5] shares this test system. The assay can be described thus: BioMAP LPS system (PBMC + endothelial cells, TLR4), cell-based ELISA. Also on record: species or system human. The protocol:
Human umbilical vein endothelial cells (HUVEC) were cultured according to standard methods, and plated into microtiter plates. Peripheral blood mononuclear cells (PBMC) were prepared from buffy coats from normal human donors according to standard methods. Experiments were performed by culturing HUVEC in microtiter plates in the presence of cytokines (IL-1b, 1 ng/ml; TNF-a, 5 ng/ml; and IFN-g, 100 ng/ml, or IL-4, 5 ng/ml and histamine, […]), activators (SAg, 20 ng/ml or LPS, 0.2 ng/ml), and/or PBMC (7.5×10^4 cells/well) for 24 h. Compounds were tested at the indicated concentrations. Compounds were prepared in the solvent as directed, added 1 hr before stimulation of the cells, and were present during the whole 24 hr stimulation period. The levels of readout parameters (proteins) were measured by cell-based ELISA. Briefly, microtiter plates are treated, blocked, and then incubated with primary antibodies or isotype control antibodies (0.01-0.5 mg/ml) for 1 hr. After washing, plates were incubated with a peroxidase-conjugated anti-mouse IgG secondary antibody or a biotin-conjugated anti-mouse IgG antibody for 1 hr followed by streptavidin-HRP for 30 min. Plates were washed and developed with TMB substrate and the absorbance (OD) was read at 450 nm (subtracting the background absorbance at 650 nm). Other readout parameters include: total protein levels (SRB assay), measuring the viability of peripheral blood mononuclear cells (incorporation of propidium iodide); and microscopic visualization. SRB was performed by staining cells with 0.1% sulforhodamine B after fixation with 10% TCA, and reading wells at 560 nm. PBMC viability was assessed by adding propidium iodide (10 mg/ml) to PBMC that had been cultured for 24 hours in the presence of activators and measuring the percentage of cells that incorporated dye by flow cytometry after 10 minutes. For data analysis, mean OD values (or other measurements) for each parameter were calculated from triplicate samples per experiment. The mean value obtained for each parameter in a treated sample was then divided by the mean value from an appropriate control to generate a ratio. All ratios were then log 10 transformed. An average or “trusted” profile was created by averaging 2 repeats of the experiment for each compound and concentration combination. 99% prediction envelopes (grey shading in Figures) were calculated for historical controls.

The test system of assay [6] is Macrophages + HUVEC. The assay can be described thus: BioMAP Mphg system (macrophages + endothelial cells + Zymosan). The format is cell-based, human. The procedure: Macrophages, are generated from human peripheral blood mononuclear cells. Human peripheral blood mononuclear cells are isolated from blood by Ficoll-hypaque density gradient centrifugation as described (Ponath, JEM 183:2437, 1996). Monocytes are then isolated by negative selection using the Monocyte Isolation Kit II (Miltenyi Biotec, Germany) MACS beads according to the manufacturer's instructions. Alternatively, 10×10^6 peripheral blood mononuclear cells/ml are cultured in RPMI containing 10% fetal bovine serum for 3 hours and non-adherent lymphocytes are removed by gentle washing. The following are then applied for 7 to 8 days: MCSF (50 ng/ml) alone, or MCSF+one of the following cytokines, IL-4 (20 ng/ml), IL-6 (20 ng/ml), IFN-gamma (10 ng/ml), or GM-CSF (10 ng/ml)+IL-4 (20 ng/ml). To generate foam cells, the culture media is replaced with media containing 40% autologous serum or 40% Human AB Serum male (Cambrex Bioproducts) in RPMI+MCSF 50 ng/ml for an additional 4 to 5 days. Cells are harvested and resuspended to 10^6 cells/ml and added to confluent endothelial cells. Primary human umbilical vein endothelial cells (HUVEC) are used. Other cells that may replace HUVEC in the screen include primary microvascular endothelial cells, aortic or arteriolar endothelial cells. 7.5×10^4 cells/ml are cultured to confluence in EGM-2 (Clonetics). […]

In assay [7] the test system is Primary human umbilical artery smooth muscle cells (UASMC). The assay is described as follows: BioMAP SM3C system (smooth muscle cells + IL-1 + TNF-a + IFNg). The format is cell-based. The procedure:
Primary human umbilical artery smooth muscle cells (UASMC) are used. Other cells that may replace UASMC in the screen include primary aortic, bronchial, coronary artery or pulmonary artery smooth muscle cells. Other muscle cells of interest include skeletal muscle cells and cardiomyocytes. Passage 5-7 cells are used for the screen. 4×10^4 cells/ml are cultured to 100% confluence on CellBind plates (Costar) in SmGM-2 (Clonetics) containing 5% FBS. In some cases, SmGM-2 may be removed 24 hours before screen, and replaced with serum-free SmBM basal media (Clonetics) supplemented with insulin. The following are then applied for 24 hours: Factors include a combination of IL-4 (5 ng/ml), and histamine (HIS) (10 μM) or a combination of IL-1 (1 ng/ml), TNF-a (5 ng/ml) and IFNg (20 ng/ml) (SM3C) and/or thrombin (10 units/ml) for 6 and/or 24 hours. Standard concentrations of agents are employed as described in the literature. Other factors of interest include: IL-6, LPS, endothelin-1 and angiotensin II. Based on the parameters altered by the indicated factors, BioMAPs are generated for the parameters VCAM, HLA-DR, IL-8, MCP-1, Thrombomodulin, tissue factor, LDL-receptor and uPAR. […]

The subject of assay [8] is heart transplant patients. The following applies: cited from earlier work.
The mark [9] stands for this setting: protein level drug-treated versus buffer control, 24 h.

`CC(C)c1c(C(=O)Nc2ccccc2)c(-c2ccccc2)c(-c2ccc(F)cc2)n1CC[C@@H](O)C[C@@H](O)CC(=O)O` [atorvastatin]: the uPAR level entry in assay [1] is recorded as “significant decreases”. In assay [2], the Eotaxin-3 level result is given as “increases” and the MCP-1 level entry is reported as “significant decreases”. In addition, in assay [3], the “BioMAP profile compared with the lovastatin profile” value is on record as “induce the same BioMAP profile”.

For `CC[C@H](C)C(=O)O[C@H]1CCC=C2C=C[C@H](C)[C@H](CC[C@@H]3C[C@@H](O)CC(=O)O3)[C@H]21` [mevastatin], the “BioMAP profile compared with the lovastatin profile” value in assay [3] was “induce the same BioMAP profile”.

Consider `COCc1c(C(C)C)nc(C(C)C)c(/C=C/[C@@H](O)C[C@@H](O)CC(=O)O)c1-c1ccc(F)cc1` [cerevistatin], for which, in assay [3], the “BioMAP profile compared with the lovastatin profile” value is given as “induce the same BioMAP profile”.

`CCCCCCCCCCCCCCCCCCOCC(COP(=O)([O-])OCC[N+](C)(C)C)OC` (stereo not drawn) [ET-18-OCH3]: in assay [4], the CD69 level result is on record as “downregulation”, the E-selectin level entry was “upregulation” and the IL-8 level entry was “upregulation”.

As for `CC[C@H](C)C(=O)O[C@H]1C[C@@H](C)C=C2C=C[C@H](C)[C@H](CC[C@@H]3C[C@@H](O)CC(=O)O3)[C@H]21` [lovastatin], the uPAR level result in assay [1] is “significant decreases”. For the same compound, in assay [2], the Eotaxin-3 level entry is recorded as “increases” and the MCP-1 level entry is “significant decreases”. In addition, in assay [5] (setting [9]), the IL-1alpha level result was “significant decreases”, the M-CSF level entry was “increases” and the tissue factor level result is “increases”.

On to `COc1c(C)c2c(c(O)c1C/C=C(\C)CCC(=O)O)C(=O)OC2` [mycophenolic acid], for which the MCP-1 level result in assay [1], in assay [5], in assay [4], in assay [6] and in assay [7] was “inhibition” in each case. Further, in assay [8], the “long-term benefit against post-transplant vasculopathy” value is recorded as “protecting against post-transplant vasculopathy”.

Consider `S=C([S-])OC1CC2CC1C1CCCC21.[K+]` (stereo not drawn) [D609], for which, in assay [4], the CD69 level entry was “downregulation”, the E-selectin level entry is “upregulation” and the IL-8 level entry is “upregulation”.
